Experiment [1] has as its target T1, NS3 (Hepatitis C virus, UniProt A3EZJ3). Description: Inhibitory concentration against hepatitis C virus NS4A binding region of NS3 protease. Also on record: species or system Hepacivirus hominis.
Experiment [2] has as its target T1, NS3. The experiment in a line: Inhibitory concentration against hepatitis C virus helicase; range 0.6-0.7. Also on record: species or system Hepacivirus hominis.
In another experiment the target is Genome polyprotein (Hepatitis C virus genotype 1a (isolate 1) (HCV), UniProt P26664). The experiment in a line: Inhibitory concentration against hepatitis C virus NS2/3 protease. Also on record: species or system Hepacivirus hominis.
For a further experiment, the target named is NS3 (Hepatitis C virus) (UniProt A3EZJ3). The experiment in a line: Percent inhibition against hepatitis C virus helicase at 25 ug/mL; Range 6-13. Conditions: Hepacivirus hominis.
Experiment [3] addresses T2, Hepatitis C virus NS4A protein (Hepatitis C virus, UniProt D2K2A8).
T2 sequence (D2K2A8 whole entry): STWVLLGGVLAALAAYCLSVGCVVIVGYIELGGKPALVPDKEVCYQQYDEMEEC
The experiment in a line: Inhibitory concentration against hepatitis C virus NS4A active site. Also on record: species or system Hepacivirus hominis.

For experiment [4], the target named is T2, Hepatitis C virus NS4A protein. Description: Inhibitory concentration against hepatitis C NS4A protease. Also on record: species or system Hepacivirus hominis.

Positions of bridges follow the written chain, without caps; N, C: chain ends. Non-standard residues stand in square brackets, D forms with d. Residues, ends and D or L forms follow the SMILES beside them. Chains are numbered I, II in the order given. Ahx = NCCCCCC(=O)O

T1 sequence (A3EZJ3 whole entry): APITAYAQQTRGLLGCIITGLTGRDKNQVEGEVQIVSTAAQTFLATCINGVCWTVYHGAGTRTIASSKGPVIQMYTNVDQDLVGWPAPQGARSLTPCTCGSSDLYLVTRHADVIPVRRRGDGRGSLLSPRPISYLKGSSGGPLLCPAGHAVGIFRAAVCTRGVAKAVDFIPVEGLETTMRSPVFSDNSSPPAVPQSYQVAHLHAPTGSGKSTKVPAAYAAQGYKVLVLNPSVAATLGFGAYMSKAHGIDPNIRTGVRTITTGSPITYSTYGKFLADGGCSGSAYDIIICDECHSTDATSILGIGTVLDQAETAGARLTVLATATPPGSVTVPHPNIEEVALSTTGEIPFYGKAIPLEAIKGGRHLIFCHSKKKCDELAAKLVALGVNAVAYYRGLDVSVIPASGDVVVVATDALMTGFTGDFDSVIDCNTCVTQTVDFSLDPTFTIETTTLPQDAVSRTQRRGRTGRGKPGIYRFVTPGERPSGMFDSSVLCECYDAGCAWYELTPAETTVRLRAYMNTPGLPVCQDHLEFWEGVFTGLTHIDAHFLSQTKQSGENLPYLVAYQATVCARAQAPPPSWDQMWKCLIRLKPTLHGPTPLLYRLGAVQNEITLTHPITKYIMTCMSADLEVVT
Sequence of Genome polyprotein (P26664 810-1026 limits assumed): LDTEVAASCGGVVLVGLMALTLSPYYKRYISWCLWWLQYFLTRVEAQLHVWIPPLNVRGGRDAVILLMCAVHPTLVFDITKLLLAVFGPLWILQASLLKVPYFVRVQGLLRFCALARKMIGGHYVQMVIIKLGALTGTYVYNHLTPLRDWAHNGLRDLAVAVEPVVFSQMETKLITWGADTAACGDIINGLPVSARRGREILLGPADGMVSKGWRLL
Sequence of Genome polyprotein (P26664 1027-1657 limits assumed): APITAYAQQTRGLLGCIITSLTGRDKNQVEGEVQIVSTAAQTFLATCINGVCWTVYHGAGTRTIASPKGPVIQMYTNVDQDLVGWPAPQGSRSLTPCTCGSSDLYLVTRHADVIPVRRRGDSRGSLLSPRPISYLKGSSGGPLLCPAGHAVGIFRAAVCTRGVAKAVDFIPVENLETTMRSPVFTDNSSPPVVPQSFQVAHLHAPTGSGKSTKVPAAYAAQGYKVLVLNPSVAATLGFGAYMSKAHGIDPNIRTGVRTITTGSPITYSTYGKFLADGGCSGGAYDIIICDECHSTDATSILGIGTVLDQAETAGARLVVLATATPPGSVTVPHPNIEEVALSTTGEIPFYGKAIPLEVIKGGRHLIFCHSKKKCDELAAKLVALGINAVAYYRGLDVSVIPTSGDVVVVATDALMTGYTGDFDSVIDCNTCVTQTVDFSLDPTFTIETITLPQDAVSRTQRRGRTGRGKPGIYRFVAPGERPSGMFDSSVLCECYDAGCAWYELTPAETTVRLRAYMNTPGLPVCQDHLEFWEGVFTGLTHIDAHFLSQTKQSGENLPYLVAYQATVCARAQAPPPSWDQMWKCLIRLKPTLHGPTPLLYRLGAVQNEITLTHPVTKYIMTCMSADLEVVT
Sequence of NS3 (Hepatitis C virus) (A3EZJ3 as listed by the source): as the sequence (A3EZJ3 whole entry) above

For `CC[C@H](C)[C@H](NC(=O)[C@H](CCCN=C(N)N)NC(=O)CNC(=O)[C@@H](NC(=O)[C@@H](NC(=O)[C@@H](NC(=O)[C@@H](NC(=O)[C@H](CS)NC(=O)CCCCCNC(=O)[C@H](CS)NC(=O)[C@H](CS)NC(=O)[C@@H](NC(=O)[C@@H](NC(=O)[C@H](CC(=O)O)NC(=O)[C@@H](N)CCC(=O)O)C(C)C)C(C)C)C(C)C)C(C)C)[C@@H](C)CC)C(C)C)C(=O)N[C@H](C(=O)N[C@@H](CC(C)C)C(=O)N[C@@H](CO)C(=O)NCC(=O)N[C@@H](CCCCN)C(=O)N[C@@H](CCCCN)C(=O)O)C(C)C` (H-EDVVCC[Ahx]CVVIVGRIVLSGKK-OH), the half-inhibitory concentration (IC50) (as a rule, the concentration that gives 50% inhibition) on NS3 [1] amounted to 3000 nM. This lies in the single-digit micromolar range.

Compound `CN1CCN(CCCN2c3ccccc3Sc3ccc(C(F)(F)F)cc32)CC1` [TRIFLUOPERAZINE] displayed a 50% inhibitory concentration (IC50) against NS3 [2] of 700 nM.

At Genome polyprotein, H-KGSVVIVGRIILSGRK-OH displayed a concentration for half-maximal inhibition (IC50) of 5700 nM.

On NS3 [1], `CC[C@H](C)[C@H](NC(=O)[C@H](CCCN=C(N)N)NC(=O)CNC(=O)[C@@H](NC(=O)[C@@H](NC(=O)[C@@H](NC(=O)[C@@H](NC(=O)[C@@H](N)CS)C(C)C)C(C)C)[C@@H](C)CC)C(C)C)C(=O)N[C@H](C(=O)N[C@@H](CC(C)C)C(=O)N[C@@H](CO)C(=O)NCC(=O)N[C@@H](CCCCN)C(=O)NCCCC[C@H](NC(=O)CCCCCNC(=O)[C@H](CS)NC(=O)[C@H](CS)NC(=O)[C@@H](NC(=O)[C@@H](NC(=O)[C@H](CC(=O)O)NC(=O)[C@@H](N)CCC(=O)O)C(C)C)C(C)C)C(=O)O)C(C)C` (I: H-CVVIVGRIVLSGK / II: H-EDVVCC[Ahx]K-OH; amide I:C-II:8) returned a half-inhibitory concentration (IC50) of 3000 nM.

`CC[C@H](C)[C@H](NC(=O)[C@H](CCCNC(=N)N)NC(=O)CNC(=O)[C@@H](NC(=O)[C@@H](NC(=O)[C@@H](NC(=O)[C@@H](NC(=O)[C@H](CS)NC(=O)CCCCCNC(=O)CCCCCNC(=O)[C@H](CS)NC(=O)[C@H](CS)NC(=O)[C@@H](NC(=O)[C@@H](NC(=O)[C@H](CC(=O)O)NC(=O)[C@@H](N)CCC(=O)O)C(C)C)C(C)C)C(C)C)C(C)C)[C@@H](C)CC)C(C)C)C(=O)N[C@H](C(=O)N[C@@H](CC(C)C)C(=O)N[C@@H](CO)C(=O)NCC(=O)N[C@@H](CCCCN)C(=O)O)C(C)C` (H-EDVVCC[Ahx][Ahx]CVVIVGRIVLSGK-OH) showed an IC50 at NS3 [1] of 600 nM.

Turning to `O=C(CCCCC(=O)Nc1nc2ccccc2[nH]1)Nc1nc2ccccc2[nH]1`, the inhibition (in general, the relative decrease from the control value, in per cent) against NS3 (Hepatitis C virus) was found to be 13%.

In experiment [3], H-SLVIRGVIV-OH gave a half-inhibitory concentration (IC50) of 600 nM.

Compound `CC[C@H](C)[C@H](NC(=O)CNC(=O)[C@H](CCCN=C(N)N)NC(=O)[C@@H](NC(=O)[C@@H](NC(=O)[C@H](CC(C)C)NC(=O)[C@H](CO)NC(=O)CNC(=O)[C@H](CCCCN)NC(=O)CCCCCNC(=O)[C@H](CS)NC(=O)[C@H](CS)NC(=O)[C@@H](NC(=O)[C@@H](NC(=O)[C@H](CCC(=O)O)NC(=O)[C@@H](N)CC(=O)O)C(C)C)C(C)C)C(C)C)[C@@H](C)CC)C(=O)N[C@H](C(=O)N[C@H](C(=O)N[C@@H](CS)C(=O)N[C@@H](CCCCN)C(=O)O)C(C)C)C(C)C` (H-DEVVCC[Ahx]KGSLVIRGIVVCK-OH) showed an IC50 on NS3 [1] of 200 nM.

Consider H-KGSLVIRGVIVVCK-OH, for which the concentration for half-maximal inhibition (IC50) in experiment [3] was determined as 200 nM.

Consider H-CVVIVGRIVLSGK-OH, for which, in experiment [4], the IC50 was 200 nM. That is a sub-micromolar value.

The compound Ac-RGGSVVIVGRIILSGRK-OH displayed a half-inhibitory concentration (IC50) against Genome polyprotein of 3400 nM.

Consider `CC[C@H](C)[C@@H](NC(=O)[C@H](NC(=O)[C@@H](CC(C)C)NC(=O)[C@@H](CO)NC(=O)CNC(=O)[C@H](CCCCN)NC(=O)CCCCCNC(=O)CCCCCNC(=O)[C@H](CS)NC(=O)[C@H](CS)NC(=O)[C@@H](NC(=O)[C@@H](NC(=O)[C@H](CC(=O)O)NC(=O)[C@@H](N)CCC(=O)O)C(C)C)C(C)C)C(C)C)C(=O)N[C@H](CCCN=C(N)N)C(=O)NCC(=O)N[C@@H](C(=O)N[C@@H](C(=O)N[C@@H](C(=O)N[C@@H](C(=O)N[C@H](CS)C(=O)O)C(C)C)C(C)C)[C@@H](C)CC)C(C)C`, for which the IC50 at NS3 [1] was determined as 200 nM. In other words, the sub-micromolar range.

These data come from ChEMBL document CHEMBL1145280, “Control of hepatitis C: a medicinal chemistry perspective” (J Med Chem, 2005).
